Molecular target: T1, TRPC6 channel (Homo sapiens, UniProt Q9Y210)
T1 sequence (Q9Y210 1-931): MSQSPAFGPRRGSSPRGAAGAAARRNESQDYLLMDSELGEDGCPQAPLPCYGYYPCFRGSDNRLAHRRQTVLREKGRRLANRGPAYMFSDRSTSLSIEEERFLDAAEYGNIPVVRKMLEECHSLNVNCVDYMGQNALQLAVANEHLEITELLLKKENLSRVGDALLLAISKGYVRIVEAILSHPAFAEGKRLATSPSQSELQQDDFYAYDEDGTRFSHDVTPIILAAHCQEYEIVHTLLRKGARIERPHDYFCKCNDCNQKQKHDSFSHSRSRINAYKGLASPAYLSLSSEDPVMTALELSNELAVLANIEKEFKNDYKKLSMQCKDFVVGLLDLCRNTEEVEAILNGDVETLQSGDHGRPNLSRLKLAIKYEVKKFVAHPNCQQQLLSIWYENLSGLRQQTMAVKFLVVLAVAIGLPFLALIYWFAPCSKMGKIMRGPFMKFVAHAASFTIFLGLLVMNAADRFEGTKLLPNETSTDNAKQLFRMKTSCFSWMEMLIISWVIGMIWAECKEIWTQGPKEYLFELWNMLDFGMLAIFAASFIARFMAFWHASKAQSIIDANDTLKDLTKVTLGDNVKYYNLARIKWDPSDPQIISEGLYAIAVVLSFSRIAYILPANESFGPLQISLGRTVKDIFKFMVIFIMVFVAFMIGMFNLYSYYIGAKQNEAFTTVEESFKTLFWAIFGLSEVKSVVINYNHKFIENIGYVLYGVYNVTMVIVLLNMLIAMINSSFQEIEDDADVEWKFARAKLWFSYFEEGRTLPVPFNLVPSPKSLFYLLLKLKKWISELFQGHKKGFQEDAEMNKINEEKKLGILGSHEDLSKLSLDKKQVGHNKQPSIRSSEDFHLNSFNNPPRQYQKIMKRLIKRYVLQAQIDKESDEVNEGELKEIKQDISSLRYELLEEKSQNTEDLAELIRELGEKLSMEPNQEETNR
Test: IC50 on TRPC6 channel-mediated Ca2+ entry in HEK293hTRPC6 cells
Type: cell-based
Parameters: expressed in transfected cells; host or cells: HEK293 (lentiviral transduction, puromycin selection)
Settings: HEK293hTRPC6, OAG 80 μM, Ca2+ 2 mM
Method: The half maximal inhibitory concentrations (IC50) of the compounds of the present invention (as exemplified by Compound 1-1 obtained in Example 1) on TRPC6 channel-mediated Ca^2+ entry were determined using HEK293hTRPC6, a tool cell overexpressing TRPC6 protein. Methods were as follows: HEK293hTRPC6, a tool cell overexpressing TRPC6 protein, was established in the same manner as in Example 7.
Determination of the effect of compounds on changes in intracellular calcium ion concentration in HEK293hTRPC6 cells: the mother solution of the compounds was diluted to the following concentrations, 0.1 nM, 0.3 nM, 1 nM, 3 nM, 10 nM, 30 nM, 100 nM, 300 nM, 1,000 nM, and 3,000 nM, respectively, using cell culture medium. […] The crawls were placed in the center of the bath, perfused with calcium-free Tyrode's solution for 5 min and fixed on the stage of an inverted fluorescence microscope. […] Fluorescence intensity was measured at different excitation wavelengths (340 nm, 380 nm) using a TILL Ion Imaging System (TILLvisION), and the value of fluorescence intensity emitted by intracellular fluorescent probe at different excitation wavelengths was substituted into the formula: [Ca^2+]i=Kd×β×(R−Rmin)/[…]. […] Dose-effect curves were fitted using GraphPad Prism software and the IC50 was calculated.

Row | Compound | IC50
1 | Cn1c(C(=O)NCCC(=O)O)cc2ccccc21 [3-[(1-methyl-1H-indole-2-carbonyl)amino]propionic acid, reference compound] | 24.1 nM
2 | CC(=O)OCCCNC(=O)c1c(C=O)c2ccccc2n1C [compound 1-1, propyl 3-[(3-formyl-1-methyl-1H-indole-2-carbonyl)amino]acetate] | 11.4 nM

Source: patent US12692232B2, “Indole carboxamide compound, preparation therefor and use thereof” (NANJING RUISHUNING MEDICAL TECHNOLOGY CO., LTD., priority 2021, dated 2026)
